Measured values from US6310247A, “7-aryl-6(Z)-heptatrienoic acid retinamides” (Hoffmann-LA Roche Inc., priority 1999, dated 2001).

Tested on: NMU-induced mammary tumors
Assay: NMU-induced mammary tumors in Sprague-Dawley rats
Type: in vivo, rat
Settings: for Effect on tumors (in words): i.p., tumor size and number; for Number of first tumors with volume relative to day 0: progressed > 100% / Number of first tumors with volume relative to day 0: regressed > 50% / Number of first tumors with volume relative to day 0: static / Number of first tumors: total: 25 mg/kg i.p. q.d.; for No. of first tumors regressing to unpalpable/no. palpable at day 0: 25 mg/kg i.p., 5×/wk for 4 weeks
Excerpt: Thus, compounds of formula 1 have efficacy against established nitrosomethylurea (NMU)-induced mammary tumors in rats. The induction of invasive mammary-tissue specific tumors in rats by NMU (Gullino et al., 1975) produces primarily estrogen-dependent carcinomas (Arafah et al., 1980) within as little as 4 weeks following a single, low-toxicity dose (McCormick et al., 1981) and results in a high percentage of tumor induction. The properties of the tumors induced in rats by NMU in this experimental model are representative of human mammary carcinoma and are invasive (McCormick et al., 1981).
Materials and Methods, 750 virgin female Sprague-Dawley rats 26 to 32 days of age (Harlan Laboratories) were housed in polycarbonate cages (3 rats/cage) and provided food and water ad libitum. Mammary tumors were induced essentially as previously described (Gullino et al., 1975 and McCormick et al., 1981). At the age of 50+/-3 days, each animal received a single dose (50 mg/kg body weight) of NMU (Sigma, St. Louis, Mo.) in 0.85% sodium chloride acidified to pH 5.0 with acetic acid. The carcinogen was administered with a 26 g needle i.v. via the tail vein in a 0.5 ml volume.
Rats were checked weekly starting 4 weeks after NMU administration for palpable tumors and those bearing at least one mammary tumor, palpable for 11 days or less, were entered into study on day 61 post-NMU administration. Fifteen animals were entered into treatment or control groups. Tumor diameters were measured weekly with calipers along their long and short axes and tumor volume was calculated from the ellipsoid formula, (D×d^2)/2, where D is the long diameter and d is the short diameter. The days on which new palpable tumors arose or on which established tumors disappeared were noted along with anatomical position. Tumors which appeared in the same anatomical location at which a tumor had previously completely regressed were considered to be regrowths of the same tumor. Rats which developed ulcerations of tumors were immediately terminated from studies. All animals entered into groups were weighed daily on weekdays for 6 weeks.
N-(4-hydroxyphenyl)-(2E,4E,6Z)-7-[3,5-bis(trifluoromethyl)phenyl]-3,7-dimethyl-2,4,6-heptatrienamide was prepared in 4% ethanol, 8% PEG400, 7.2% Cremophor RH40 and 80% D5W and administered intraperitoneally in a 2.8 ml volume via a 21 g needle 5 times per week, q.d., for 4 weeks.
For treatment of NMU-induced tumors in rats, solutions of the test compound N-(4-hydroxyphenyl)-(2E,4E,6Z)-7-[3,5-bis(trifluoromethyl)phenyl]-3,7-dimethyl-2,4,6-heptatrienamide were prepared daily in 4% ethanol, 8% PEG400, 7.2% Cremophor RH40 and 80% D5W.

## C/C(=C/C=C/C(C)=C/C(=O)Nc1ccc(O)cc1)c1cc(C(F)(F)F)cc(C(F)(F)F)c1 [N-(4-hydroxyphenyl)-(2E,4E,6Z)-7-[3,5-bis(trifluoromethyl)phenyl]-3,7-dimethyl-2,4,6-heptatrienamide]
25 mg/kg/2.8 ml i.p. q.d., 5×/wk for 4 wks
  Rats treated that succumbed to toxicity: 3 of 15
  Effect on tumors (in words): decrease both tumor size and tumor number
Listed as the tested compound
  Effect on tumors (in words): capable of causing existing tumors to shrink, and, in addition, causes the number of tumors to decrease by eliminating first tumors and preventing additional tumors from arising
Week 1, 5×/wk for 4 wks
  Number of first tumors with volume relative to day 0: progressed > 100%: 4
  Number of first tumors with volume relative to day 0: regressed > 50%: 10
  Number of first tumors with volume relative to day 0: static: 5
  Number of first tumors: total: 19
Week 1, ** p < 0.005 vs vehicle
  No. of first tumors regressing to unpalpable/no. palpable at day 0: 7/20
Week 2, 5×/wk for 4 wks
  Number of first tumors with volume relative to day 0: progressed > 100%: 6
  Number of first tumors with volume relative to day 0: regressed > 50%: 8
  Number of first tumors with volume relative to day 0: static: 5
  Number of first tumors: total: 19
Week 2, * p < 0.05 vs vehicle
  No. of first tumors regressing to unpalpable/no. palpable at day 0: 5/19
Week 3, 5×/wk for 4 wks
  Number of first tumors with volume relative to day 0: progressed > 100%: 6
  Number of first tumors with volume relative to day 0: regressed > 50%: 6
  Number of first tumors with volume relative to day 0: static: 3
  Number of first tumors: total: 19
Week 3
  No. of first tumors regressing to unpalpable/no. palpable at day 0: 3/19
Week 4, * p < 0.05 vs vehicle
  No. of first tumors regressing to unpalpable/no. palpable at day 0: 4/19
Week 5
  No. of first tumors regressing to unpalpable/no. palpable at day 0: 4/18
Week 6, * p < 0.05 vs vehicle
  No. of first tumors regressing to unpalpable/no. palpable at day 0: 5/18
